Data on two compounds can be found in US5817674A, “Quinoline compounds” (Roussel Uclaf, priority 1991, dated 1998).

The subject of assay [1] is angiotensin II on the isolated portal vein. Put plainly: antagonistic activity of angiotensin II on the isolated portal vein. Also on record: species or system male Wistar rats. As to conditions: rat isolated portal vein; angiotensin II 3.10^-8 M; compound 15 minutes before stimulation; 37° C.; verapamil 1.10^-6 M; read-out: IC50 (concentration that produced a 50% inhibition of the response to angiotensin). Here is the method:
The portal vein was removed from male Wistar rats weighing about 350 g (IFFA Credo France) after cervical dislocation. It was put rapidly into a physiological solution (see below) at ambient temperature and a ring of about 1 mm was mounted in a bath with an isolated element containing 20 ml of the following physiological solution (composition in mM: NaCl 118.3-KCl 4.7-MgSO4 1.2-KH2 PO4 1.2-NaHCO3 25-glucose 11.1-CaCl2 2.5). The medium was held at 37° C. and oxygenated by a mixture of O2 95%, CO2 5%. The initial pressure imposed was 1 g and the rings were left at rest for 60 to 90 minutes. To avoid spontaneous contractions, verapamil was added to the incubation bath (1.10^-6 M).
At the end of rest period, angiotensin II (Ciba hypertensin) 3.10^-8 M was added to the incubation bath and left in contact with the preparation for one minute. This operation was repeated every 30 minutes with the tissue being washed 3 or 4 times between two stimulations with angiotensin. The compound to be studied was introduced into the bath 15 minutes before a new stimulation with angiotensin. As increasing concentrations of this molecule were used, an IC50 (concentration that produced a 50% inhibition of the response to angiotensin) was calculated, expressed in nanomoles.

A further assay deals with T1, angiotensin II receptor (Rattus norvegicus, UniProt P25095).
T1 construct: A fresh membrane preparation obtained from the liver of a rat was used; from tissue; host or cells: rat liver membranes
T1 sequence (P25095 1-359): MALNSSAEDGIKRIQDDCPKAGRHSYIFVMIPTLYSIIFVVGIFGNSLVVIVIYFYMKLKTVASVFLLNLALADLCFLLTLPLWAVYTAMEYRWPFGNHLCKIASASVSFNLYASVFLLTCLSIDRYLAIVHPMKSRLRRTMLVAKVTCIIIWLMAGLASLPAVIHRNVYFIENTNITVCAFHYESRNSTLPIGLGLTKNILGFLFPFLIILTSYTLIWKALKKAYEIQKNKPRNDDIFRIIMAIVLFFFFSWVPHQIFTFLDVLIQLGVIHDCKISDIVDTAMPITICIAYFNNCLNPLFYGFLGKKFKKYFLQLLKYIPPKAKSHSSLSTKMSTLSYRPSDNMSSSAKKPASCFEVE
Put plainly: Test on the angiotensin II receptor (rat liver membranes, 125I angiotensin II). The format is binding. As to conditions: pH 7.4, 25° C., 150 minutes, read-out: IC50 (displacement of 50% of the specific radioactivity fixed on the receptor). Here is the method:
1) Test on the angiotensin II receptor
A fresh membrane preparation obtained from the liver of a rat was used. The tissue was ground up in a polytron in a Tris 50 mM pH 7.4 buffer and after being ground up, the tissue was centrifuged 3 times at 30,000 g for 15 mintues with intermediate taking up of the deposits in the Tris pH 7.4 buffer. The last deposits were suspended in a pH 7.4 incubation buffer (Tris 20 mM, NaCl 135 mM, KCl 10 mM, glucose 5 mM, MgCl2 10 mM, benzyl sulfonyl fluoride 0.3 mM, bacitracin 0.1 mM, (0.2% bovine albumin serum). 2 ml aliquoted fractions were divided into hemolysis tubes and 125I angiotensin II (25,000 DPM/tube) and the product to be studied were added. The product was first tested at 3×10^-5 M in triplicate. When the test product displaced more than 50% of the radioactivity linked specifically to the receptor, it was tested again in a range of 7 concentrations to determine the concentration that inhibited the radioactivity linked specifically to the receptor by 50%. In this way, the 50% inhibiting concentration was determined.
The non-specific bond was determined by the addition of the product of Example 94 of the European Patent No. 0,253,310 at 10^-5 M (in triplicate). […]

The test system of assay [2] is vasoconstrictive effect of endotheline. Put plainly: antagonistic activity of the vasoconstrictive effect of endotheline in a demedullated rat. The format is in vivo. As to conditions: 1 mg/kg (IV), 10 minutes before endotheline 1-3-10-30 μg/kg IV; anaesthetized demedullated Sprague Dawley rats. Here is the method:
4) Investigation of an antagonistic activity of the vasoconstrictive effect of endotheline in a demedullated rat
The vasoconstriction caused by injections (IV) of cumulative doses of endotheline (1-3-10-30 μg/kg) was measured by the increase of average arterial pressure in a control group of rats (Sprague Dawley), anaesthetized, then demedullated.

Another assay concerns the target T2, endotheline receptor (Rattus norvegicus, UniProt P21451).
T2 construct: prepared from rat's posteror cortex plus cerebellum; from tissue; host or cells: rat posterior cortex plus cerebellum membranes
T2 sequence (P21451 27-442): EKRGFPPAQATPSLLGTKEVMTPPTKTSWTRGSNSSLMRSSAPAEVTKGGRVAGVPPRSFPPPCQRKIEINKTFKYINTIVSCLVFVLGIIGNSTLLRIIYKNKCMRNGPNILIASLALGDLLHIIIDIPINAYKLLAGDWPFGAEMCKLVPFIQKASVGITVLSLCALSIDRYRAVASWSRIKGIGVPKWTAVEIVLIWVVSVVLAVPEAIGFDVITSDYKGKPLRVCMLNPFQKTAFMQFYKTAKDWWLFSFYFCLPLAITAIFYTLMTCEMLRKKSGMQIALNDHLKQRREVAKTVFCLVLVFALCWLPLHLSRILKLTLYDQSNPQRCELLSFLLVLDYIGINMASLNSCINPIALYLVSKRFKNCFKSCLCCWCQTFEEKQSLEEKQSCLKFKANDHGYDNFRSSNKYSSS
Put plainly: activity on the endotheline receptor (rat posterior cortex plus cerebellum membranes, 125I Endotheline). Type of assay: binding. Particulars: pH 7.4, 25° C., 60 minutes, read-out: IC50 (displacement by 50% of the specific radioactivity fixed to the receptor). The procedure:
3) Study of the activity on the endotheline receptor
A membrane preparaton was prepared from rat's posteror cortex plus cerebellum. The tissue was ground up in a POLYTRON in a Tris buffer 50 mM pH=7.4. After 30 minutes at 25° C. (W.B.), the homogenate was centrifuged at 30,000 g for 15 minutes (2 centrifugings with intermediate taking up in the Tris buffer pH 7.4). The deposits were suspended in an incubation buffer (Tris 25 mM, pepsteatine 5 microg/ml, aprotinine 3 microg/ml. PMSF 0.1 mM, EDTA 3 mM, EGTA 1 mM pH 7.4). 2 ml aliquots were distributed in hemolysis tubes and 125I Endotheline (about 50,000 dpm/tube) and the product to be studied were added. The product was first tested at 3×10^-5 M in triplicate. When the tested product displaced by more than 50% the radioactivity linked specifically to the receptor, it was tested again in a range of 7 concentrations to determine the concentration that inhibited the radioactivity linked specifically to the receptor by 50%. In this way, the 50% inhibiting concentration was determined.
The non-specific bond was determined by the addition of endotheline at 10^-6 M (in triplicate). The aliquot was incubated at 25° C. for 60 minutes, put in a water bath at 0° C. for 5 minutes, filtered under reduced pressure, rinsed with Tris buffer 7.4 pH and the radioactivity was counted in the presence of scintillating Triton. […]

For `CCCCc1cc(Cc2ccc(-c3ccccc3C(=O)O)cc2)c2ccccc2n1` [Example 4, 4'-[(2-butyl-4-quinolinyl)-methyl](1,1'-biphenyl)-2-carboxylic acid], the IC50 amounted to 131 nM in assay [1] and 540 nM at angiotensin II receptor.
As to `CC(C)Cc1cc(OCc2ccc(-c3ccccc3C(=O)O)cc2)c2cccc(C(F)(F)F)c2n1` [Example 35, 4'-(((2-(2-methylproyl)-8-(trifluoromethyl)-4-quinolinyl)-oxy)-methyl)(1,1'-biphenyl)-2-carboxylic acid], the “antagonistic effect: decrease in response to endotheline (average arterial pressure)” value in assay [2] is recorded as “antagonistic effect”. In addition, the IC50 at endotheline receptor was 14000 nM.
